Measurements published in the supplement of paper PMC11061612.

Columns and labels:
Assay in all cases: combination Emax (second highest fraction inhibited in the dose matrix, 72 h); higher = more inhibition; extreme values may be limits of the assay
[1] = system: P12-ICHIKAWA (T-Lymphoblastic Leukemia)
Outline: (§1)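 Cell lines in DMEM/F12 or RPMI with 10% FBS were plated in 1536-well plates, held 24 hours at 37°C, 5% CO2, then given two-drug dose matrices for 72 hours (DMSO typically 0.2%). Viability was read by CellTiter-Glo 2.0 luminescence and scaled as inhibition from 0 (vehicle wells) to 1 (blank wells). Combination Emax is the second-highest inhibition in the matrix; Bliss excess is observed combination effect minus expected EA + EB − EA·EB, EA and EB being single-agent effects.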

[2] = system: KCL-22 (Chronic Myelogenous Leukemia)
Outline: as §1

NCI-H2818 (Mesothelioma) = system: NCI-H2818 (Mesothelioma)
Outline: as §1

[3] = system: K-562 (Chronic Myelogenous Leukemia)
Outline: as §1

[4] = system: PANC-08-13 (Pancreatic Carcinoma)
Outline: as §1

CHP-212 (Neuroblastoma) = system: CHP-212 (Neuroblastoma)
Outline: as §1

ES8 (Ewing's Sarcoma) = system: ES8 (Ewing's Sarcoma)
Outline: as §1

[5] = system: HL-60 (Acute Myeloid Leukemia)
Outline: as §1

[6] = system: CAMA-1 (Breast Carcinoma)
Outline: as §1

[7] = system: SW837 (Colorectal Carcinoma)
Outline: as §1

[8] = system: MOLT-16 (T-Lymphoblastic Leukemia)
Outline: as §1

[9] = system: NCI-H1792 (Lung Adenocarcinoma)
Outline: as §1

U251 (Low Grade Glioma) = system: U251 (Low Grade Glioma)
Outline: as §1

[10] = system: MFM-223 (Breast Carcinoma)
Outline: as §1

[11] = system: HDQ-P1 (Breast Carcinoma)
Outline: as §1

[12] = system: TOV-112D (Ovarian Carcinoma)
Outline: as §1

[13] = system: BFTC-905 (Bladder Carcinoma)
Outline: as §1

[14] = system: MKN28 (Gastric Carcinoma)
Outline: as §1

[15] = system: GR-ST (B-Lymphoblastic Leukemia)
Outline: as §1

[16] = system: SW1417 (Colorectal Carcinoma)
Outline: as §1

SMILES | combination Emax [1] | combination Emax [2] | combination Emax (NCI-H2818 (Mesothelioma)) | combination Emax [3] | combination Emax [4] | combination Emax (CHP-212 (Neuroblastoma)) | combination Emax (ES8 (Ewing's Sarcoma)) | combination Emax [5] | combination Emax [6] | combination Emax [7] | combination Emax [8] | combination Emax [9] | combination Emax (U251 (Low Grade Glioma)) | combination Emax [10] | combination Emax [11] | combination Emax [12] | combination Emax [13] | combination Emax [14] | combination Emax [15] | combination Emax [16]
Cn1cnc2c(F)c(Nc3ccc(Br)cc3Cl)c(C(=O)NOCCO)cc21 [Selumetinib] + C[C@@H]1COCCN1C2=NC(=NC(=C2)C3(CC3)[S@](=N)(=O)C)C4=C5C=CNC5=NC=C4 [AZD6738] (first compound max 10 µM, 7x7, partner max 10 µM) | 0.988 | 0.984 | 0.252 | 0.866 | 0.239 | 0.989 | 0.674 | 0.819 | 0.319 | 0.544 | 1 | 0.76 | 0.443 | 0.673 | 0.455 | 0.657 | 0.784 | 0.202 | 0.766 | 0.583
COc1nnc2ccc(N3CCC(c4ccc(OCCN5CCN(C)C(=O)[C@H]5C)cc4)CC3)nn12 [AZD5153] + CCN(CCO)CCCOc1ccc2c(Nc3cc(CC(=O)Nc4cccc(F)c4)[nH]n3)ncnc2c1 [AZD2811] (first compound max 1 µM, 7x7, partner max 1 µM) | 1 | 0.68 | 0.292 | 0.517 | 0.656 | 0.964 | 0.994 | 0.984 | 0.497 | 0.57 | 1 | 0.668 | 0.661 | 0.415 | 0.431 | 0.718 | 0.71 | 0.43 | 0.818 | 0.477
Cn1cnc2c(F)c(Nc3ccc(Br)cc3Cl)c(C(=O)NOCCO)cc21 [Selumetinib] + C=CCn1c(=O)c2cnc(Nc3ccc(N4CCN(C)CC4)cc3)nc2n1-c1cccc(C(C)(C)O)n1 [AZD1775] (first compound max 10 µM, partner max 1 µM) | 1 | 0.943 | 0.303 | 0.834 | 0.305 | 0.978 | 0.491 | 0.712 | 0.148 | 0.549 | 1 | 0.632 | 0.326 | 0.446 | 0.673 | 0.48 | 0.665 | 0.276 | 0.801 | 0.704
COc1nnc2ccc(N3CCC(c4ccc(OCCN5CCN(C)C(=O)[C@H]5C)cc4)CC3)nn12 [AZD5153] + Cn1cnc2c(F)c(Nc3ccc(Br)cc3Cl)c(C(=O)NOCCO)cc21 [Selumetinib] (first compound max 1 µM, 7x7, partner max 10 µM) | 0.99 | 0.957 | 0.27 | 0.469 | 0.805 | 0.989 | 0.681 | 0.966 | 0.506 | 0.753 | 0.949 | 0.78 | 0.592 | 0.507 | 0.431 | 0.684 | 0.873 | 0.416 | 0.782 | 0.778
Cc1c2c(nn1C)CSCc1cc(n(C)n1)CSc1cc(c3ccccc3c1)OCCCc1c(C(=O)O)n(C)c3c-2c(Cl)ccc13 [AZD5991] + Cn1cnc2c(F)c(Nc3ccc(Br)cc3Cl)c(C(=O)NOCCO)cc21 [Selumetinib] (first compound max 1 µM, 7x7, partner max 3 µM) | 1 | 0.959 | 0.293 | 0.416 | 0.208 | 0.944 | 0.521 | 1 | 0.509 | 0.325 | 1 | 0.704 | 0.274 | 0.282 | 0.211 | 0.414 | 0.751 | 0.387 | 0.0688 | 0.527
CC1(C)CCC(CN2CCN(c3ccc(C(=O)NS(=O)(=O)c4ccc(NCC5CCOCC5)c([N+](=O)[O-])c4)c(Oc4cnc5[nH]ccc5c4)c3)CC2)=C(c2ccc(Cl)cc2)C1 [Venetoclax] + Cn1cnc2c(F)c(Nc3ccc(Br)cc3Cl)c(C(=O)NOCCO)cc21 [Selumetinib] (first compound max 1 µM, 7x7, partner max 3 µM) | 0.23 | 0.318 | 0.133 | 0.414 | 0.184 | 0.878 | 0.195 | 0.937 | 0.0815 | 0.297 | 0.691 | 0.251 | 0.137 | 0.24 | 0.182 | 0.156 | 0.454 | 0.278 | 0.481 | 0.489
CC1(C)CCC(CN2CCN(c3ccc(C(=O)NS(=O)(=O)c4ccc(NCC5CCOCC5)c([N+](=O)[O-])c4)c(Oc4cnc5[nH]ccc5c4)c3)CC2)=C(c2ccc(Cl)cc2)C1 [Venetoclax] + CCN(CCO)CCCOc1ccc2c(Nc3cc(CC(=O)Nc4cccc(F)c4)[nH]n3)ncnc2c1 [AZD2811] (first compound max 1 µM, 7x7, partner max 1 µM) | 1 | 0.376 | 0.251 | 0.393 | 0.212 | 0.74 | 1 | 0.918 | 0.224 | 0.2 | 1 | 0.216 | 0.274 | 0.252 | 0.172 | 0.266 | 0.354 | 0.221 | 0.648 | 0.209
COc1nnc2ccc(N3CCC(c4ccc(OCCN5CCN(C)C(=O)[C@H]5C)cc4)CC3)nn12 [AZD5153] + C[C@@H]1COCCN1C2=NC(=NC(=C2)C3(CC3)[S@](=N)(=O)C)C4=C5C=CNC5=NC=C4 [AZD6738] (first compound max 1 µM, 7x7, partner max 10 µM) | 1 | 0.978 | 0.281 | 0.821 | 0.831 | 0.967 | 0.907 | 0.985 | 0.661 | 0.756 | 1 | 0.805 | 0.836 | 0.734 | 0.571 | 0.849 | 0.802 | 0.51 | 0.846 | 0.662
NC1(C(=O)N[C@@H](CCO)c2ccc(Cl)cc2)CCN(c2ncnc3[nH]ccc23)CC1 [Capivasertib] + CC(=O)c1c(C)c2cnc(Nc3ccc(N4CCNCC4)cn3)nc2n(C2CCCC2)c1=O [Palbociclib] (first compound max 10 µM, 7x7, partner max 10 µM) | 0.739 | 0.612 | 0.316 | 0.257 | 0.308 | 0.556 | 0.64 | 0.799 | 0.668 | 0.151 | 0.924 | 0.553 | 0.441 | 0.882 | 0.302 | 0.542 | 0.397 | 0.155 | 0.75 | 0.269
C[C@@H](c1ccc2nccn2c1)n1nnc2ncc(-c3cnn(C)c3)nc21 [Savolitinib] + Cc1c2c(nn1C)CSCc1cc(n(C)n1)CSc1cc(c3ccccc3c1)OCCCc1c(C(=O)O)n(C)c3c-2c(Cl)ccc13 [AZD5991] (first compound max 1 µM, 7x7, partner max 1 µM) | 0.29 | 0.289 | 0.16 | 0.159 | 0.146 | 0.787 | 0.292 | 1 | 0.494 | 0.124 | 1 | 0.214 | 0.217 | 0.244 | 0.2 | 0.395 | 0.191 | 0.0861 | 0.145 | 0.161
CN(C)CCCOc1ccc(-c2ccc3ncc4c(c3c2)n(C2CCOCC2)c(=O)n4C)cn1 [AZD0156] + O=C(c1cc(Cc2n[nH]c(=O)c3ccccc23)ccc1F)N1CCN(C(=O)C2CC2)CC1 [Olaparib] (first compound max 3 µM, partner max 3 µM) | 0.611 | 0.457 | 0.38 | 0.171 | 0.241 | 0.519 | 0.877 | 0.489 | 0.285 | 0.185 | 0.914 | 0.267 | 0.294 | 0.179 | 0.371 | 0.552 | 0.544 | 0.0496 | 0.6 | 0.135
CC1(C)CCC(CN2CCN(c3ccc(C(=O)NS(=O)(=O)c4ccc(NCC5CCOCC5)c([N+](=O)[O-])c4)c(Oc4cnc5[nH]ccc5c4)c3)CC2)=C(c2ccc(Cl)cc2)C1 [Venetoclax] + CN(C)CCCOc1ccc(-c2ccc3ncc4c(c3c2)n(C2CCOCC2)c(=O)n4C)cn1 [AZD0156] (first compound max 1 µM, 7x7, partner max 1 µM) | 0.224 | 0.212 | 0.284 | 0.374 | 0.189 | 0.17 | 0.869 | 0.71 | 0.145 | 0.145 | 0.699 | 0.223 | 0.227 | 0.155 | 0.139 | 0.131 | 0.588 | 0.26 | 0.704 | 0.266
Cc1c2c(nn1C)CSCc1cc(n(C)n1)CSc1cc(c3ccccc3c1)OCCCc1c(C(=O)O)n(C)c3c-2c(Cl)ccc13 [AZD5991] + C=CCn1c(=O)c2cnc(Nc3ccc(N4CCN(C)CC4)cc3)nc2n1-c1cccc(C(C)(C)O)n1 [AZD1775] (first compound max 1 µM, partner max 1 µM) | 1 | 0.969 | 0.519 | 0.747 | 0.379 | 0.916 | 0.717 | 1 | 0.635 | 0.406 | 1 | 0.708 | 0.423 | 0.562 | 0.579 | 0.714 | 0.673 | 0.572 | 0.791 | 0.542
